Laboratory results as given in ChEMBL document CHEMBL1201862, “PubChem BioAssay data set” (2004).
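Briefly, cells in 96-well plates were exposed to five compound concentrations for 48 h, and endpoints were estimated by linear interpolation. Here, GI50 denotes the concentration required for 50% inhibition of growth.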 Active and inactive are the calls of the source. No stated cut-off is given here; in the data, active = GI50 up to about 1.1 µM and inactive = higher.

How the values were obtained:
Assay in all cases: DTP human tumour cell line panel, 48 h
CAKI-1 = tested on: CAKI-1
DU-145 = tested on: DU-145
HL-60 = tested on: HL-60
HOP-92 = tested on: HOP-92
Hs-578T = tested on: Hs-578T
K562 = tested on: K562
MDA-MB-435 = tested on: MDA-MB-435
NCI-H460 = tested on: NCI-H460
NCI/ADR-RES = tested on: NCI/ADR-RES
OVCAR-4 = tested on: OVCAR-4
RPMI-8226 = tested on: RPMI-8226
SF-295 = tested on: SF-295
SF-539 = tested on: SF-539
SK-MEL-2 = tested on: SK-MEL-2
SK-OV-3 = tested on: SK-OV-3
SR = tested on: SR
SW-620 = tested on: SW-620
UACC-62 = tested on: UACC-62
MDA-N = tested on: MDA-N
TK-10 = tested on: TK-10

SMILES: CC1(C)CC(=O)C2=C(C1)OC1=C(CC(C)(C)CC1=O)C2c1ccccc1Cl (centres undefined)
- GI50 (CAKI-1): > 100 µM (inactive)
- GI50 (DU-145): > 100 µM (inactive)
- GI50 (HL-60): > 100 µM (inactive)
- GI50 (HOP-92): > 100 µM (inactive)
- GI50 (Hs-578T): > 100 µM (inactive)
- GI50 (K562): > 100 µM (inactive)
- GI50 (MDA-MB-435): > 100 µM (inactive)
- GI50 (NCI-H460): > 100 µM (inactive)
- GI50 (NCI/ADR-RES): > 100 µM (inactive)
- GI50 (OVCAR-4): > 100 µM (inactive)
- GI50 (RPMI-8226): > 100 µM (inactive)
- GI50 (SF-295): > 100 µM (inactive)
- GI50 (SF-539): 70.5 µM (inactive)
- GI50 (SK-MEL-2): > 100 µM (inactive)
- GI50 (SK-OV-3): > 100 µM (inactive)
- GI50 (SR): > 100 µM (inactive)
- GI50 (SW-620): > 100 µM (inactive)
- GI50 (UACC-62): > 100 µM (inactive)

SMILES: O=C(Cc1nc2ccc(C(=O)c3ccccc3)cc2nc1O)C(=O)Nc1ccc(Br)cc1
- GI50 (CAKI-1): 40.1 µM (inactive)
- GI50 (HL-60): 69.7 µM (inactive)
- GI50 (HOP-92): 71 µM (inactive)
- GI50 (Hs-578T): 53 µM (inactive)
- GI50 (K562): 49.2 µM (inactive)
- GI50 (MDA-MB-435): 44.4 µM (inactive)
- GI50 (MDA-N): 39.7 µM (inactive)
- GI50 (NCI-H460): > 100 µM (inactive)
- GI50 (NCI/ADR-RES): > 100 µM (inactive)
- GI50 (OVCAR-4): 44.4 µM (inactive)
- GI50 (RPMI-8226): 99.3 µM (inactive)
- GI50 (SF-295): > 100 µM (inactive)
- GI50 (SF-539): > 100 µM (inactive)
- GI50 (SK-MEL-2): > 100 µM (inactive)
- GI50 (SK-OV-3): > 100 µM (inactive)
- GI50 (SW-620): > 100 µM (inactive)
- GI50 (TK-10): > 100 µM (inactive)
- GI50 (UACC-62): > 100 µM (inactive)

SMILES: Cc1cc2nc3c(N)nn(CCCN(C)C)c3nc2cc1C
- GI50 (CAKI-1): > 100 µM (inactive)
- GI50 (DU-145): > 100 µM (inactive)
- GI50 (Hs-578T): > 100 µM (inactive)
- GI50 (MDA-MB-435): 90.8 µM (inactive)
- GI50 (NCI-H460): 80.5 µM (inactive)
- GI50 (NCI/ADR-RES): 59.7 µM (inactive)
- GI50 (OVCAR-4): > 100 µM (inactive)
- GI50 (RPMI-8226): > 100 µM (inactive)
- GI50 (SF-295): > 100 µM (inactive)
- GI50 (SF-539): > 100 µM (inactive)
- GI50 (SK-OV-3): > 100 µM (inactive)
- GI50 (SW-620): 56.9 µM (inactive)
- GI50 (TK-10): 71.6 µM (inactive)
- GI50 (UACC-62): 95.7 µM (inactive)

SMILES: C[C@H]1OC(=O)[C@@H]2N=NN(Cc3ccccc3)[C@H]12
- GI50 (CAKI-1): > 100 µM (inactive)
- GI50 (DU-145): > 100 µM (inactive)
- GI50 (HOP-92): > 100 µM (inactive)
- GI50 (K562): > 100 µM (inactive)
- GI50 (MDA-MB-435): > 100 µM (inactive)
- GI50 (MDA-N): > 100 µM (inactive)
- GI50 (NCI-H460): > 100 µM (inactive)
- GI50 (NCI/ADR-RES): > 100 µM (inactive)
- GI50 (OVCAR-4): > 100 µM (inactive)
- GI50 (RPMI-8226): > 100 µM (inactive)
- GI50 (SF-295): > 100 µM (inactive)
- GI50 (SF-539): > 100 µM (inactive)
- GI50 (SK-MEL-2): > 100 µM (inactive)
- GI50 (SK-OV-3): > 100 µM (inactive)
- GI50 (SR): > 100 µM (inactive)
- GI50 (SW-620): > 100 µM (inactive)
- GI50 (TK-10): > 100 µM (inactive)
- GI50 (UACC-62): > 100 µM (inactive)

SMILES: CCOn1cc(C[C@@]2(O)C(=O)OC3[C@@H](O)CO[C@@]32O)c2ccccc21 (some centres undefined)
- GI50 (CAKI-1): > 100 µM (inactive)
- GI50 (DU-145): > 100 µM (inactive)
- GI50 (HL-60): > 100 µM (inactive)
- GI50 (HOP-92): > 100 µM (inactive)
- GI50 (Hs-578T): > 100 µM (inactive)
- GI50 (K562): > 100 µM (inactive)
- GI50 (MDA-MB-435): > 100 µM (inactive)
- GI50 (NCI-H460): > 100 µM (inactive)
- GI50 (NCI/ADR-RES): > 100 µM (inactive)
- GI50 (OVCAR-4): > 100 µM (inactive)
- GI50 (RPMI-8226): > 100 µM (inactive)
- GI50 (SF-295): > 100 µM (inactive)
- GI50 (SF-539): > 100 µM (inactive)
- GI50 (SK-MEL-2): > 100 µM (inactive)
- GI50 (SK-OV-3): > 100 µM (inactive)
- GI50 (SR): > 100 µM (inactive)
- GI50 (SW-620): > 100 µM (inactive)
- GI50 (TK-10): > 100 µM (inactive)
- GI50 (UACC-62): 46.7 µM (inactive)

SMILES: C/C=C/[C@H]1O[C@@](O)([C@@H](C)[C@H](O)[C@H](C)[C@H]2OC(=O)/C(OC)=C/C(C)=C/[C@@H](C)[C@@H](O)[C@@H](CC)[C@@H](O)[C@H](C)C/C(C)=C/C=C/[C@@H]2OC)C[C@H](OC2CC(O)C(OC(N)=O)C(C)O2)[C@@H]1C (some centres undefined)
- GI50 (CAKI-1): 0.0532 µM (active)
- GI50 (DU-145): 0.914 µM (active)
- GI50 (HL-60): < 0.01 µM (active)
- GI50 (Hs-578T): 12.4 µM (inactive)
- GI50 (K562): 0.024 µM (active)
- GI50 (MDA-MB-435): 0.0275 µM (active)
- GI50 (NCI-H460): < 0.0111 µM (active)
- GI50 (NCI/ADR-RES): 0.759 µM (active)
- GI50 (OVCAR-4): 0.0791 µM (active)
- GI50 (RPMI-8226): < 0.0157 µM (active)
- GI50 (SF-295): 0.0248 µM (active)
- GI50 (SF-539): 0.0224 µM (active)
- GI50 (SK-MEL-2): 0.0195 µM (active)
- GI50 (SK-OV-3): 12.8 µM (inactive)
- GI50 (SR): < 0.01 µM (active)
- GI50 (SW-620): < 0.022 µM (active)
- GI50 (TK-10): 17.3 µM (inactive)
- GI50 (UACC-62): 0.0231 µM (active)

SMILES: NC1=CN2c3ccccc3N(CC(=O)O)C2C=C1 (centres undefined)
- GI50 (CAKI-1): > 100 µM (inactive)
- GI50 (DU-145): > 100 µM (inactive)
- GI50 (HL-60): > 100 µM (inactive)
- GI50 (HOP-92): > 100 µM (inactive)
- GI50 (Hs-578T): > 100 µM (inactive)
- GI50 (K562): > 100 µM (inactive)
- GI50 (MDA-MB-435): > 100 µM (inactive)
- GI50 (NCI-H460): > 100 µM (inactive)
- GI50 (NCI/ADR-RES): > 100 µM (inactive)
- GI50 (OVCAR-4): > 100 µM (inactive)
- GI50 (RPMI-8226): > 100 µM (inactive)
- GI50 (SF-295): > 100 µM (inactive)
- GI50 (SF-539): > 100 µM (inactive)
- GI50 (SK-MEL-2): > 100 µM (inactive)
- GI50 (SK-OV-3): > 100 µM (inactive)
- GI50 (SR): > 100 µM (inactive)
- GI50 (SW-620): > 100 µM (inactive)
- GI50 (TK-10): > 100 µM (inactive)
- GI50 (UACC-62): > 100 µM (inactive)

SMILES: CC(C)(C)C1CCC(CI)(N=[N+]=[N-])CC1 (centres undefined)
- GI50 (CAKI-1): > 100 µM (inactive)
- GI50 (HL-60): 42.8 µM (inactive)
- GI50 (HOP-92): > 100 µM (inactive)
- GI50 (K562): > 100 µM (inactive)
- GI50 (NCI-H460): > 100 µM (inactive)
- GI50 (OVCAR-4): > 100 µM (inactive)
- GI50 (RPMI-8226): 79.1 µM (inactive)
- GI50 (SF-295): > 100 µM (inactive)
- GI50 (SF-539): > 100 µM (inactive)
- GI50 (SK-MEL-2): 61.1 µM (inactive)
- GI50 (SK-OV-3): > 100 µM (inactive)
- GI50 (SR): 33.7 µM (inactive)
- GI50 (SW-620): > 100 µM (inactive)
- GI50 (TK-10): > 100 µM (inactive)
- GI50 (UACC-62): > 100 µM (inactive)
